The values below are quoted from earlier work in patent US20130243861A1, “PRESS-COATED TABLETS OF PREDNISONE” (CADILA HEALTHCARE LIMITED, priority 2012, published 2013).

`C[C@]12C=CC(=O)C=C1CC[C@@H]1[C@@H]2C(=O)C[C@@]2(C)[C@H]1CC[C@]2(O)C(=O)CO` [Prednisone, pregna-1,4-diene-3,11,20-trione, 17,21-dihydroxy-]: the solubility in water result is “very slightly soluble”.
